According to US11427594B2, “Non brain penetrant A2A inhibitors and methods for use in the treatment of cancers” (iTeos Belgium SA, priority 2018, dated 2022):
Read-outs that look alike come from different tables or passages of the source.

Key:
A2A receptor = molecular target: T1, A2A receptor (Homo sapiens, UniProt P29274); test: Inhibition of cAMP production in HEK cells (LANCE Ultra cAMP, TR-FRET); format: cell-based; conditions: HEK-293 cells with stable transfection of A2A receptor
T1 construct: host or cells: HEK-293
Method: When the A2A receptor is activated, is induces the production of cAMP. The present assay thus aims at showing that cAMP production is inhibited in HEK cells in response to their exposure to the compounds of the invention. HEK-293 cells with a stable transfection of A2A receptor were bought from PerkinElmer® (#ES-011-C). Cells were cultured in EMEM medium (Lonza, #BE12-611F) supplemented with 10% FBS (Lonza, #DE14-801F) and 200 μg/mL of G418 (Tocris, #4131) at 37° C. and 5% CO2. Fresh media without the selection marker was added on the day immediately before the experiment to stop selection pressure. cAMP inhibition and antagonist IC50 determination were accessed using the LANCE® Ultra cAMP Kit from PerkinElmer® (#TRF0262) on white half area 96 well plates (PerkinElmer®, #6005560). The assays were conducted in two different stimulation buffers: • a) normal with 1×HBSS (Gibco®, #141750-95), 5 mM HEPES (Lonza, #BE17-737E), 0.1% BSA and 25 μM Rolipram and • b) HSA with 1×HBSS (Gibco®, #141750-95), 5 mM HEPES (Lonza, #BE17-737E), 2% Human Serum Albumin (Sigma-Aldrich®—A1653), 30 μM of EHNA (Tocris—#1261) and 100 μM Rolipram. Stimulation buffer b) mimics the human situation by increasing the amount of albumin present in the assay. Compounds of the present invention were diluted 100× in either of the buffers depending on the assay performed. A total of 1000 cells per well were pre-incubated for 10 minutes with the compounds of the present invention before adding the corresponded EC80 of A2A agonist (3 nM of NECA in normal buffer) or 5 μM of Adenosine (in HAS buffer) for a total reaction time of 30 minutes. The total volume of the reaction was 20 μl (10 μl of cells, 5 μl of antagonist and 5 μl of agonist). The reaction was finalized by adding 10 μl of 4×EU-cAMP tracer working solution and 10 μl of 4× ULight-anti-cAMP working solution. The TR-FRET signal was measured after 1 hour using a Spectramax Paradigm (Molecular Devices).

[1] = Permeability and efflux in Caco-2 cells; format: in vitro ADME; conditions: human, Caco-2 monolayer, bidirectional transport, pH 7.4
Method: The transport buffer (TB, pH 7.4) used in the study is Hank's Buffered Saline Solution (HBSS, Gibco, Cat #14025-076) with 10 mM HEPES at pH 7.4. Fetal bovine serum (FBS) (Corning, Cat #Corning-35-076-CV, or other vendors), Minimum Essential Media (MEM) (Gibco, Cat #41500-034) as well as its supplements are purchased from Invitrogen (Carlsbad, Calif., USA). Caco-2 cell line (Cat #HTB-37) is purchased from the ATCC (Rockville, Md., USA). The organic solvents used in the study are purchased from Sigma Aldrich (St. Louis, Mo., USA). For reference compounds (fenoterol, propranolol and digoxin) and test compounds, 0.4 mM intermediate solutions are prepared by diluting 10 mM or other appropriate concentrations of DMSO stock solutions with DMSO. 2 μM dosing solutions for reference compounds and test compounds are prepared by spiking the appropriate volume of intermediate solution to TB with and without 1 μM Zosuquidar. The final concentration of DMSO is no more than 1% (v/v). Caco-2 cells are grown in MEM supplemented with 2 mM L-glutamine, 10% FBS, 100 U/mL penicillin-G and 100 μg/mL streptomycin. The cells are incubated at 37° C., 5% CO2 and relatively saturated humidity. After reaching 80-90% confluency, the cells are gently detached with 0.05% trypsin-EDTA solution. Cells at passage 30-50 are seeded on the 96-well BD insert system (Cat #359274) at the density of 1×10^5 cells/cm2 and cultured for 21-28 days with medium changed every 4-5 days. TB and dosing solutions were pre-warmed to 37° C. before transport assay. The cell monolayer was washed twice with HBSS containing 10 mM HEPES. For A-B (apical to basolateral) directional transport assay, 75 μL dosing solution is added to the apical well. Fill each basolateral well with 250 μL TB. For B-A (basolateral to apical) directional transport assay, 250 μL of dosing solution is added to the basolateral well after filling each apical well with 75 μL TB. Test compound(s) and digoxin are tested at 2 μM in the presence or absence of 1 μM zosuquidar bidirectionally in duplicate. Atenolol and propranolol are tested at 2 μM in the absence of zosuquidar in A to B direction in duplicate. The plates are incubated for 120 minutes at 37° C. with 5% C02 and saturated humidity. The time zero samples are generated by mixing 50 μL initial dosing solution of test compound or reference compound with 100 μL TB and 250 μL quench solution (acetonitrile (ACN) or other appropriate solvent with internal standard(s), based on the bioanalytical method development). At 120 minutes, 150 μL of solution is collected from each A-B receiver well followed by addition of 250 μL quench solution to get A-B receiver sample. And for other samples (A-B donor, B-A donor and receiver), 50 μL of solution is collected from each corresponding well followed by addition of 250 μL quench solution and 100 μL TB. All samples are vortex-mixed and centrifuged at 3220 g for 20 minutes. Subsequently, supernatant is diluted with ultra pure water for LC-MS/MS analysis. The concentrations of test compound in all samples are determined by LC-MS/MS and expressed as peak area ratio of analyte to internal standard. The concentration of samples is expressed using the peak area ratio of Analyte to Internal Standard (Analyte/IS). The apparent permeability coefficient (Papp) is calculated using the following equation: Papp=VR/(Area*Time)*(CR/C0) wherein VR is the solution volume in the receiver chamber (0.075 mL on the apical side, 0.25 mL on the basolateral side); Area is the surface area for the transport, i.e. 0.0804 cm2 for the area of the monolayer; Time is incubation time, expressed in seconds, 2 h=2×3600 s; C0 is the initial concentration in the donor chamber; CR is the final concentrations in receiver chamber. The efflux ratio is calculated using the following equation: Efflux ratio=[…]) where Papp (A-B) and Papp (B-A) are the Papp values of compound in Apical to Basolateral and Basolateral to Apical directional transport, respectively.

[2] = HSA stimulation buffer, 5 μM Adenosine as agonist, 2.0% HSA, read-out: IC50 (nM) (5 μM Adenosine as agonist, 2.0% HSA)
[3] = normal stimulation buffer, 3 nM NECA as agonist, 0.1% BSA, read-out: IC50 (nM) (3 nM NECA as agonist, 0.1% BSA)

T1 sequence (P29274 whole entry): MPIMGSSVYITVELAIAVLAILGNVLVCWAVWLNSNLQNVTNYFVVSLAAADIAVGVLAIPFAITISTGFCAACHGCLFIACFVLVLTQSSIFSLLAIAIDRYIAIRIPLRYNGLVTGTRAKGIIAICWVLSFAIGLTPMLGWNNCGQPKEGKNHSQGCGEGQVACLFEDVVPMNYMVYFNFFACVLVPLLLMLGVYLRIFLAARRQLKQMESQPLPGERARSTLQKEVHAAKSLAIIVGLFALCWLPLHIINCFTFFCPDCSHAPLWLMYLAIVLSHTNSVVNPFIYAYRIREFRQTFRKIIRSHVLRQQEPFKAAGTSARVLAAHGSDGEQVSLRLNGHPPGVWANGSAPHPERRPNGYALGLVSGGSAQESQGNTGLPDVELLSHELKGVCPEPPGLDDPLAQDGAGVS

| SMILES | IC50 (A2A receptor; [2]) [nM] | IC50 (A2A receptor; [3]) [nM] | efflux ratio at 120 min, 2 μM [1] |
| --- | --- | --- | --- |
| CN(CCN1CCN(c2cc(OCC[S@+](C)[O-])c(F)cc2F)CC1)c1nc(N)n2nc(-c3ccco3)nc2n1 [Compound 1, (S)—N5-(2-(4-(2,4-difluoro-5-(2-(methylsulfinyl)ethoxy)phenyl)piperazin-1-yl)ethyl)-2-(furan-2-yl)-N5-methyl-[1,2,4]triazolo[1,5-a][1,3,5]triazine-5,7-diamine] | 33 | 0.4 | – |
| CN(CCN1CCN(c2cc(OCC[S@@+](C)[O-])c(F)cc2F)CC1)c1nc(N)n2nc(-c3ccco3)nc2n1 [Compound 2, (R)—N5-(2-(4-(2,4-difluoro-5-(2-(methylsulfinyl)ethoxy)phenyl)piperazin-1-yl)ethyl)-2-(furan-2-yl)-N5-methyl-[1,2,4]triazolo[1,5-a][1,3,5]triazine-5,7-diamine] | 28 | 0.6 | – |
| CNC(=O)c1cc(N2CCN(CCn3c(=O)n(C)c4c3nc(N)n3nc(-c5ccco5)nc43)CC2)c(F)cc1F [Compound 3, 5-(4-(2-(5-amino-8-(furan-2-yl)-1-methyl-2-oxo-1H-[1,2,4]triazolo[5,1-i]purin-3(2H)-yl)ethyl)piperazin-1-yl)-2,4-difluoro-N-methylbenzamide] | 176 | 0.1 | 53 |
| CNC(=O)c1cc(N2CCN(CCn3ncc4c3nc(N)n3nc(-c5ccco5)nc43)CC2)c(F)cc1F [Compound 4, 5-(4-(2-(5-amino-2-(furan-2-yl)-7H-pyrazolo[4,3-e][1,2,4]triazolo[1,5-c]pyrimidin-7-yl)ethyl)piperazin-1-yl)-2,4-difluoro-N-methylbenzamide] | 150 | 0.3 | 8 |
| CN(CCN1CCN(c2cc(OCCS(C)(=O)=O)c(F)cc2F)CC1)c1nc(N)n2nc(-c3ccco3)nc2n1 [Compound 5, N5-(2-(4-(2,4-difluoro-5-(2-(methylsulfonyl)ethoxy)phenyl)piperazin-1-yl)ethyl)-2-(furan-2-yl)-N5-methyl-[1,2,4]triazolo[1,5-a][1,3,5]triazine-5,7-diamine] | 41 | 0.6 | > 340 |
| CS(=O)(=O)CCOc1cc(N2CCN(CCNc3nc(N)n4nc(-c5ccco5)nc4n3)CC2)c(F)cc1F [Compound 6, N5-(2-(4-(2,4-difluoro-5-(2-(methylsulfonyl)ethoxy)phenyl)piperazin-1-yl)ethyl)-2-(furan-2-yl)-[1,2,4]triazolo[1,5-a][1,3,5]triazine-5,7-diamine] | 63 | 0.9 | – |
| Cn1c(=O)n(CCN2CCN(c3cc(OCC[S@+](C)[O-])c(F)cc3F)CC2)c2nc(N)n3nc(-c4ccco4)nc3c21 [Compound 7, (S)-5-amino-3-(2-(4-(2,4-difluoro-5-(2-(methylsulfinyl)ethoxy)phenyl)piperazin-1-yl)ethyl)-8-(furan-2-yl)-1-methyl-1H-[1,2,4]triazolo[5,1-i]purin-2-one] | 64 | 0.3 | > 500 |
| Cn1c(=O)n(CCN2CCN(c3cc(OCC[S@@+](C)[O-])c(F)cc3F)CC2)c2nc(N)n3nc(-c4ccco4)nc3c21 [Compound 8, (R)-5-amino-3-(2-(4-(2,4-difluoro-5-(2-(methylsulfinyl)ethoxy)-phenyl)piperazin-1-yl)ethyl)-8-(furan-2-yl)-1-methyl-1H-[1,2,4]triazolo[5,1-i]purin-2-one] | 70 | 0.3 | > 400 |
| Cn1c(=O)n(CCN2CCN(c3cc(OCCS(C)(=O)=O)c(F)cc3F)CC2)c2nc(N)n3nc(-c4ccco4)nc3c21 [Compound 9, 5-amino-3-(2-(4-(2,4-difluoro-5-(2-(methylsulfonyl)ethoxy)phenyl)piperazin-1-yl)ethyl)-8-(furan-2-yl)-1-methyl-1H-[1,2,4]triazolo[5,1-i]purin-2(3H)-one] | 104 | 0.5 | > 300 |
| C[S@+]([O-])CCOc1cc(N2CCN(CCNc3nc(N)n4nc(-c5ccco5)nc4n3)CC2)c(F)cc1F [Compound 10, (S)—N5-(2-(4-(2,4-difluoro-5-(2-(methylsulfinyl)ethoxy)phenyl)piperazin-1-yl)ethyl)-2-(furan-2-yl)-[1,2,4]triazolo[1,5-a][1,3,5]triazine-5,7-diamine] | 25 | 0.2 | > 900 |
| Nc1nc(NCCN2CCN(c3cc(N4CC[S+]([O-])CC4)c(F)cc3F)CC2)nc2nc(-c3ccco3)nn12 [Compound 15, 4-(5-(4-(2-((7-amino-2-(furan-2-yl)-[1,2,4]triazolo[1,5-a][1,3,5]triazin-5-yl)amino)ethyl)piperazin-1-yl)-2,4-difluorophenyl)thiomorpholine 1-oxide] | 81 | 1.7 | – |
| C[S@@+]([O-])c1cc(N2CCN(CCNc3nc(N)n4nc(-c5ccco5)nc4n3)CC2)c(F)cc1F [Compound 16, (R)—N5-(2-(4-(2,4-difluoro-5-(methylsulfinyl)phenyl)piperazin-1-yl)ethyl)-2-(furan-2-yl)-[1,2,4]triazolo[1,5-a][1,3,5]triazine-5,7-diamine] | 73 | 7.4 | – |
| C[S@+]([O-])c1cc(N2CCN(CCNc3nc(N)n4nc(-c5ccco5)nc4n3)CC2)c(F)cc1F [Compound 17, (S)—N5-(2-(4-(2,4-difluoro-5-(methylsulfinyl)phenyl)piperazin-1-yl)ethyl)-2-(furan-2-yl)-[1,2,4]triazolo[1,5-a][1,3,5]triazine-5,7-diamine] | 201 | 1.8 | – |
